Columns and labels:
[1] = system: hGYS1 enzyme / glycogen synthesis in HeLa cells; assay: GYS1 cell based assay (glycogen synthesis, Glucose-glo); parameters: species or system human; conditions: Homo sapiens, HeLa, 24 h, 24 h incubation, 20 mM glucose, geometric mean of at least 2 runs
In short: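 HeLa cells starved 24 h in medium containing only 1× Glutamax were plated onto compound in medium with 20 mM glucose (1% DMSO final) for 24 h, 37 °C, 5% CO2. Acid lysates were Tris-quenched, glucoamylase-digested (pH 5.3, 1 h, 37 °C) and read by Glucose-glo luminescence. IC50 came from Hill fits, as geometric mean of ≥2 runs.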

[2] = target: hGYS1 enzyme (recombinant hGYS1/GN1 protein) (Homo sapiens (Human), UniProt P13807); assay: GYS1 coupled enzyme assay (PK/LDH); format: biochemical; conditions: hGYS1/GN1 50 nM, UDP-Glucose 0.8 mM, G6P 1 mM; geometric mean of at least 2 runs
hGYS1 enzyme (recombinant hGYS1/GN1 protein), sequence (P13807 whole entry): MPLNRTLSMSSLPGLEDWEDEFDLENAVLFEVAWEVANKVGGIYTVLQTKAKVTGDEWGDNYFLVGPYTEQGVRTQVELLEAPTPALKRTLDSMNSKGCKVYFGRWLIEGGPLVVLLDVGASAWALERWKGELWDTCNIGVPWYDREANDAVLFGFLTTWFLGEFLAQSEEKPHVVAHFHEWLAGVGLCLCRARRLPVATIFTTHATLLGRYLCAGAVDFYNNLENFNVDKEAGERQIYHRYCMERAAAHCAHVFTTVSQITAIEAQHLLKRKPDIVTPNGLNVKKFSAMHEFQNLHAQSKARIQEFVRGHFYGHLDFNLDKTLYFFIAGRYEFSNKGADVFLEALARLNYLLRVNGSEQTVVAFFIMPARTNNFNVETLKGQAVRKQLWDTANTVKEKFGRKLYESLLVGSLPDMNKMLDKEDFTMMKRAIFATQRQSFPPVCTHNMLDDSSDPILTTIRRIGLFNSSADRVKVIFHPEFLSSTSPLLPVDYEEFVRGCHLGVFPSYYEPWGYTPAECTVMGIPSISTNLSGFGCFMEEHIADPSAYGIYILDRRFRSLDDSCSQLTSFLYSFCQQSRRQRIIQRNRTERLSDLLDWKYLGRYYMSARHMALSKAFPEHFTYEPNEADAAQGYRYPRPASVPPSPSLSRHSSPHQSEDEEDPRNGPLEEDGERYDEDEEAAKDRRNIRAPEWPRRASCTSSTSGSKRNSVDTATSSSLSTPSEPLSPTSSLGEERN
hGYS1 enzyme (recombinant hGYS1/GN1 protein), sequence (P46976 whole entry partner): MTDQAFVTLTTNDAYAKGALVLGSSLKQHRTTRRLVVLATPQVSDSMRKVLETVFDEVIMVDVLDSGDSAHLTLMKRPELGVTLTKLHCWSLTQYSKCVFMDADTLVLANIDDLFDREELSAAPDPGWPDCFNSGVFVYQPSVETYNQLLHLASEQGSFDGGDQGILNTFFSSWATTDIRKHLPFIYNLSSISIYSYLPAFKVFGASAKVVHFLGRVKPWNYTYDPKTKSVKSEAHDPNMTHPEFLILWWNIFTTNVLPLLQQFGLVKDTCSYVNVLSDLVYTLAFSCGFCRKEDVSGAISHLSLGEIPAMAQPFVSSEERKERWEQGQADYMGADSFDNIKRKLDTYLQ

Row | IC50 [1] | IC50 [2] | Compound
1 | 480 nM | 28 nM | COc1nc(CC(=O)N2C[C@H](F)C[C@H]2C(=O)N[C@@H](c2ccccc2)c2ccc(C3CC3)c(F)n2)nn1C [Compound 743, (2S,4R)-N-[(S)-(5-cyclopropyl-6-fluoropyridin-2-yl)(phenyl)methyl]-4-fluoro-1-[2-(5-methoxy-1-methyl-1H-1,2,4-triazol-3-yl)acetyl]pyrrolidine-2-carboxamide]
2 | 570 nM | 26 nM | CC(C)(C)OC(=O)n1c(CC(=O)N2C[C@H](F)C[C@H]2C(=O)N[C@@H](c2ccccc2)c2ccc(C3CC3)c(F)c2)cc2ccccc21 [Compound 461, tert-butyl 2-{2-[(2S,4R)-2-{[(S)-(4-cyclopropyl-3-fluorophenyl)(phenyl)methyl]carbamoyl}-4-fluoropyrrolidin-1-yl]-2-oxoethyl}-1H-indole-1-carboxylate]
3 | 660 nM | 97 nM | O=C(N[C@@H](c1ccccc1)c1ccc(C2CC(F)(F)C2)c(F)c1)[C@@H]1C[C@@H](F)CN1C(=O)Cc1nc(C(F)(F)F)co1 [Compound 555, (2S,4R)-N-[(S)-[4-(3,3-difluorocyclobutyl)-3-fluorophenyl](phenyl)methyl]-4-fluoro-1-{2-[4-(trifluoromethyl)-1,3-oxazol-2-yl]acetyl}pyrrolidine-2-carboxamide]
4 | > 30000 nM | 2620 nM | O=C(N[C@H](c1ccccc1)c1ccc(C2CC2)c(F)n1)[C@@H]1C[C@@H](F)CN1C(=O)Cc1cccn2c(=O)[nH]nc12 [Compound 718, (2S,4R)-N-[(R)-(5-cyclopropyl-6-fluoropyridin-2-yl)(phenyl)methyl]-4-fluoro-1-(2-{3-oxo-2H,3H-[1,2,4]triazolo[4,3-a]pyridin-8-yl}acetyl)pyrrolidine-2-carboxamide]
5 | 250 nM | 7 nM | CCn1cc(CC(=O)N2C[C@H](F)C[C@H]2C(=O)N[C@@H](c2ccccc2)c2ccc(C3CC(F)(F)C3)c(F)n2)ncc1=O [Compound 527, (2S,4R)-N-[(S)-[5-(3,3-difluorocyclobutyl)-6-fluoropyridin-2-yl](phenyl)methyl]-1-[2-(4-ethyl-5-oxo-4,5-dihydropyrazin-2-yl)acetyl]-4-fluoropyrrolidine-2-carboxamide]
6 | > 30000 nM | 1680 nM | O=C(N[C@H](c1ccccc1)c1ccc(C2CC(F)(F)C2)c(F)c1)[C@@H]1C[C@@H](F)CN1C(=O)CNC(=O)N1CCC1 [Compound 545, (2S,4R)-1-((azetidine-1-carbonyl)glycyl)-N—((R)-(4-(3,3-difluorocyclobutyl)-3-fluorophenyl)(phenyl)methyl)-4-fluoropyrrolidine-2-carboxamide]
7 | 550 nM | 37 nM | CCOc1ncc(CC(=O)N2C[C@H](F)C[C@H]2C(=O)N[C@@H](c2ccccc2)c2ccc(C3CC3)c(F)n2)cc1C [Compound 737, (2S,4R)-N-[(S)-(5-cyclopropyl-6-fluoropyridin-2-yl)(phenyl)methyl]-1-[2-(6-ethoxy-5-methylpyridin-3-yl)acetyl]-4-fluoropyrrolidine-2-carboxamide]
8 | 1390 nM | 45 nM | CC(C)c1ccc([C@@H](NC(=O)[C@@H]2C[C@@H](F)CN2C(=O)Cn2nncc2N2CC(F)(F)C2)c2ccccc2)nc1 [Compound 714, (2S,4R)-1-{2-[5-(3,3-difluoroazetidin-1-yl)-1H-1,2,3-triazol-1-yl]acetyl}-4-fluoro-N-[(S)-phenyl[5-(propan-2-yl)pyridin-2-yl]methyl]pyrrolidine-2-carboxamide]
9 | > 30000 nM | 805 nM | COc1ncccc1C(NC(=O)[C@@H]1C[C@@H](F)CN1C(=O)Cc1cnn[nH]1)c1ccc(C2(C)CC2)c(F)c1 (single isomer, unassigned) [Compound 626, (2S,4R)-4-fluoro-N-[(R) or (S)-[3-fluoro-4-(1-methylcyclopropyl)phenyl](2-methoxypyridin-3-yl)methyl]-1-[2-(1H-1,2,3-triazol-5-yl)acetyl]pyrrolidine-2-carboxamide]
10 | > 17500 nM | 1080 nM | CC(C)c1ccc([C@@H](NC(=O)[C@@H]2C[C@@H](F)CN2C(=O)Cc2[nH]nnc2N(C)C)c2ccccc2)cc1F [Compound 775, (2S,4R)-1-{2-[4-(dimethylamino)-1H-1,2,3-triazol-5-yl]acetyl}-4-fluoro-N-[(S)-[3-fluoro-4-(propan-2-yl)phenyl](phenyl)methyl] pyrrolidine-2-carboxamide]
11 | > 30000 nM | 3820 nM | CC(C)c1ccc([C@H](NC(=O)[C@@H]2C[C@@H](F)CN2C(=O)Cc2cnn[nH]2)c2cccc(-c3ccn[nH]3)c2)nc1F [Compound 687, (2S,4R)-1-(2-(1H-1,2,3-triazol-5-yl)acetyl)-N—((R)-(3-(1H-pyrazol-5-yl)phenyl)(6-fluoro-5-isopropylpyridin-2-yl)methyl)-4-fluoropyrrolidine-2-carboxamide]
12 | 60 nM | 8 nM | CCn1ccnc(CC(=O)N2C[C@H](F)C[C@H]2C(=O)N[C@@H](c2ccccc2)c2ccc(C3CC(F)(F)C3)c(F)n2)c1=O [Compound 531, (2S,4R)-N-[(S)-[5-(3,3-difluorocyclobutyl)-6-fluoropyridin-2-yl](phenyl)methyl]-1-[2-(4-ethyl-3-oxo-3,4-dihydropyrazin-2-yl)acetyl]-4-fluoropyrrolidine-2-carboxamide]
13 | > 10000 nM | 443 nM | Cc1cc(C(NC(=O)[C@@H]2C[C@@H](F)CN2C(=O)CNC(=O)N(C)C)c2cccnc2N)ccc1C(C)C (single isomer, unassigned) [Compound 622, (2S,4R)-N-[(R) or (S)-(2-aminopyridin-3-yl)[3-methyl-4-(propan-2-yl)phenyl]methyl]-1-{2-[(dimethylcarbamoyl)amino]acetyl}-4-fluoropyrrolidine-2-carboxamide]
14 | 80 nM | 5 nM | CCn1cc(CC(=O)N2C[C@H](F)C[C@H]2C(=O)N[C@@H](c2ccccc2)c2ccc(C3CC(F)(F)C3)c(F)n2)cc(C)c1=O [Compound 523, (2S,4R)-N-[(S)-[5-(3,3-difluorocyclobutyl)-6-fluoropyridin-2-yl](phenyl)methyl]-1-[2-(1-ethyl-5-methyl-6-oxo-1,6-dihydropyridin-3-yl)acetyl]-4-fluoropyrrolidine-2-carboxamide]
15 | 860 nM | 74 nM | CCN(CC)c1cnnn1CC(=O)N1C[C@H](F)C[C@H]1C(=O)N[C@@H](c1ccccc1)c1ccc(C(C)C)cn1 [Compound 713, (2S,4R)-1-{2-[5-(diethylamino)-1H-1,2,3-triazol-1-yl]acetyl}-4-fluoro-N-[(S)-phenyl[5-(propan-2-yl)pyridin-2-yl]methyl]pyrrolidine-2-carboxamide]
16 | 1660 nM | 99 nM | O=C(NC(c1ccc(F)cc1)c1ccc(C2CC2)c(F)n1)[C@@H]1C[C@@H](F)CN1C(=O)Cn1nnnc1C(F)F (single isomer, unassigned) [Compound 658, (2S,4R)-N-[(S) or (R)-(5-cyclopropyl-6-fluoropyridin-2-yl)(4-fluorophenyl)methyl]-1-{2-[5-(difluoromethyl)-1H-1,2,3,4-tetrazol-1-yl]acetyl}-4-fluoropyrrolidine-2-carboxamide]
17 | 5780 nM | 424 nM | Cc1cn(CC(=O)N2C[C@H](F)C[C@H]2C(=O)N[C@H](c2ccccc2)c2ccc(C3(C)CC3)c(F)c2)c(=O)[nH]c1=O [Compound 557, (2S,4R)-4-fluoro-N—((R)-(3-fluoro-4-(1-methylcyclopropyl)phenyl)(phenyl)methyl)-1-(2-(5-methyl-2,4-dioxo-3,4-dihydropyrimidin-1(2H)-yl)acetyl)pyrrolidine-2-carboxamide]
18 | 1040 nM | 16 nM | O=C(N[C@@H](c1ccccc1)c1ccc(C2CC(F)(F)C2)c(F)n1)[C@@H]1C[C@@H](F)CN1C(=O)Cc1ncc[nH]c1=O [Compound 529, (2S,4R)-N-[(S)-[5-(3,3-difluorocyclobutyl)-6-fluoropyridin-2-yl](phenyl)methyl]-4-fluoro-1-[2-(3-oxo-3,4-dihydropyrazin-2-yl)acetyl]pyrrolidine-2-carboxamide]
19 | 400 nM | 9 nM | CC(C)c1ccc([C@@H](NC(=O)[C@@H]2C[C@@H](F)CN2C(=O)Cc2nn(C)c(=O)[nH]2)c2ccccc2)nc1F [Compound 397, (2S,4R)-4-fluoro-N-[(S)-[6-fluoro-5-(propan-2-yl)pyridin-2-yl](phenyl)methyl]-1-[2-(1-methyl-5-oxo-4,5-dihydro-1H-1,2,4-triazol-3-yl)acetyl] pyrrolidine-2-carboxamide]
20 | 1620 nM | 70 nM | O=C(N[C@@H](c1ccccc1)c1ccc(C2CC2)c(F)n1)[C@@H]1C[C@@H](F)CN1C(=O)Cc1c[nH]c(=O)cn1 [Compound 746, (2S,4R)-N-[(S)-(5-cyclopropyl-6-fluoropyridin-2-yl)(phenyl)methyl]-4-fluoro-1-[2-(5-oxo-4,5-dihydropyrazin-2-yl)acetyl]pyrrolidine-2-carboxamide]
21 | 110 nM | 5 nM | CCn1cc(CC(=O)N2C[C@H](F)C[C@H]2C(=O)N[C@@H](c2ccccc2)c2ccc(C(C)C)c(F)n2)cc(C)c1=O [Compound 796, (2S,4R)-1-[2-(1-ethyl-5-methyl-6-oxo-1,6-dihydropyridin-3-yl)acetyl]-4-fluoro-N-[(S)-[6-fluoro-5-(propan-2-yl)pyridin-2-yl](phenyl)methyl] pyrrolidine-2-carboxamide]
22 | > 18600 nM | 149 nM | CC(C)c1ccc([C@@H](NC(=O)[C@@H]2C[C@@H](F)CN2C(=O)Cn2cnnc2)c2ccccc2)nc1 [Compound 285, (2S,4R)-4-fluoro-N-[(S)-phenyl[5-(propan-2-yl)pyridin-2-yl]methyl]-1-[2-(4H-1,2,4-triazol-4-yl)acetyl]pyrrolidine-2-carboxamide]

Reference: patent US11814367B2, “Inhibitors of glycogen synthase 1 (GYS1) and methods of use thereof” (Maze Therapeutics, Inc., priority 2021, dated 2023)
